From US20140163026A1, “8-ETHYL-6-(ARYL)PYRIDO[2,3-D]PYRIMIDIN-7(8H)-ONES FOR THE TREATMENT OF NERVOUS SYSTEM DISORDERS AND CANCER” (Afraxis Holdings, Inc., priority 2011, published 2014)

Legend:
Type in all cases: biochemical
PAK2 (PAK65) = PAK2 (PAK65) (Homo sapiens, UniProt Q13177); experiment: In vitro PAK inhibition assay (SelectScreen, Ser/Thr 20 peptide)
Protocol: (§1) Compounds are screened in 1% DMSO (final) in the well. For 10 point titrations, 3-fold serial dilutions are conducted.
(§2) All Peptide/Kinase Mixtures are diluted to a 2× working concentration in the appropriate Kinase Buffer
The 2×PAK2 (PAK65)/Ser/Thr 20 mixture is prepared in 50 mM HEPES pH 7.5, 0.01% BRIJ-35, 10 mM MgCl2, 1 mM EGTA. The final 10 μL Kinase Reaction consists of 0.29-6 ng PAK2 (PAK65) and 2 μM Ser/Thr 20 in 50 mM HEPES pH 7.5, 0.01% BRIJ-35, 10 mM MgCl2, 1 mM EGTA.
(§3) This control yields 100% cleaved peptide in the Development Reaction.
(§4) The 100% Phosphorylation Control, which consists of a synthetically phosphorylated peptide of the same sequence as the peptide substrate, is designed to allow for the calculation of percent phosphorylation.
(§5) This control is designed to produce a 10-50%* phosphorylated peptide in the Kinase Reaction.
(§6) A known inhibitor control standard curve, 10 point titration, is run for each individual kinase on the same plate as the kinase to ensure the kinase is inhibited within an expected IC50 range previously determined.
(§7) Add the following solutions to a well in a 384-well plate: • 2.5 μL of 4× Test Compound OR (100 nL 100× Test Compound plus 2.4 μL kinase buffer) • 5 μL of 2× Peptide/Kinase (PAK) Mixture • 2.5 μL of 4×ATP Solution • 2. Shake the plate for 30-seconds • 3. Incubate the PAK Kinase Reaction at room temperature for 60-minutes • 4. Add 5 μL of Development Reagent Solution to each well • 5. Shake the plate for 30-seconds • 6. Incubate the Development Reaction for 60-minutes • 7. Determine the fluorescence using a fluorescence plate reader • 8. Analyze the fluorescence data
(§8) SelectScreen® Kinase Profiling Service uses XLfit from IDBS.
(§9) The representative IC50 value with a known inhibitor for each kinase was determined at the ATP bin nearest to the ATP Km app.

PAK4 = PAK4 (Homo sapiens, UniProt O96013); experiment: as above
PAK4, sequence (O96013 whole entry): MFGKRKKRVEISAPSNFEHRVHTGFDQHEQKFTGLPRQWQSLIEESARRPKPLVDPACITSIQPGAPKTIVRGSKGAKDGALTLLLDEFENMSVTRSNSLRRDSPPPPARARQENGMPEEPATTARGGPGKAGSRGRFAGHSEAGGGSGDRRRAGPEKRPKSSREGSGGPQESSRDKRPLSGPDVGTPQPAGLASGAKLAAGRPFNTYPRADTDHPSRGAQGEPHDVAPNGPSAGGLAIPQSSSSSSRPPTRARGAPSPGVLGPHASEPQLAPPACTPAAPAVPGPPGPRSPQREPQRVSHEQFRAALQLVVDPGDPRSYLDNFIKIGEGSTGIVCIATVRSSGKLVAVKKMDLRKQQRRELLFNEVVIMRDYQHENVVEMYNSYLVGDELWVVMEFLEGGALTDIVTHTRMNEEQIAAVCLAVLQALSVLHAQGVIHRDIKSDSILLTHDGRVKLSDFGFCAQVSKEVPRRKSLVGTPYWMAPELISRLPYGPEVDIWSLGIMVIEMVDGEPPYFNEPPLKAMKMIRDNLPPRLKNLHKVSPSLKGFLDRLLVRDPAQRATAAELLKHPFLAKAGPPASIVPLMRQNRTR
Protocol: as §1, §2
The 2×PAK4/Ser/Thr 20 mixture is prepared in 50 mM HEPES pH 7.5, 0.01% BRIJ-35, 10 mM MgCl2, 1 mM EGTA. The final 10 μL Kinase Reaction consists of 0.1-0.75 ng PAK4 and 2 μM Ser/Thr 20 in 50 mM HEPES pH 7.5, 0.01% BRIJ-35, 10 mM MgCl2, 1 mM EGTA. After the 1 hour Kinase Reaction incubation, 5 μL of a 1:256 dilution of Development Reagent A is added.
as §3, §4
The minimum Emission Ratio in a screen is established by the 0% Inhibition Control, which contains active kinase. This control is designed to produce a 10-50%* phosphorylated peptide in the Kinase Reaction.
as §6
as §7, with “Bar-coded Corning, low volume NBS, black 384-well plate (Corning Cat. #3676) • 1. Add the” for “Add the”
SelectScreen® Kinase Profiling Service uses XLfit from IDBS. The dose response curve is curve fit to model number 205 (sigmoidal dose-response model).
The table below provides specifications and data around each kinase. The representative IC50 value with a known inhibitor for each kinase was determined at the ATP bin nearest to the ATP Km app.

PAK1 = PAK1 (Homo sapiens, UniProt Q13153); experiment: In vitro PAK inhibition assay (SelectScreen, Ser/Thr 19 peptide)
PAK1, sequence (Q13153 whole entry): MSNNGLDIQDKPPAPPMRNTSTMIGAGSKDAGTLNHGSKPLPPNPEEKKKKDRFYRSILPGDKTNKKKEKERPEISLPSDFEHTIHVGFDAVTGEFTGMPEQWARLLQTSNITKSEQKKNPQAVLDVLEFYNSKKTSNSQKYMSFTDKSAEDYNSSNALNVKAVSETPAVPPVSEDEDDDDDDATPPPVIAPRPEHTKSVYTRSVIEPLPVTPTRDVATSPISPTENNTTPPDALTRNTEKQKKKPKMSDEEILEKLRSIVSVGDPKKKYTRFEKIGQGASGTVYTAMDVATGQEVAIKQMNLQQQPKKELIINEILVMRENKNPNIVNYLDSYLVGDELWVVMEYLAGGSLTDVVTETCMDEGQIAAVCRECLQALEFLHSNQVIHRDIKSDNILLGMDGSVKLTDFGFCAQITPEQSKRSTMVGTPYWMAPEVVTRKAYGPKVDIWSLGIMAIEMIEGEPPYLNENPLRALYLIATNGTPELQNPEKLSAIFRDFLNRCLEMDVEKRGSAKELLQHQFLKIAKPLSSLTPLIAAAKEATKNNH
Protocol: as §1, §2
The 2×PAK1/Ser/Thr 19 mixture is prepared in 50 mM HEPES pH 7.5, 0.01% BRIJ-35, 10 mM MgCl2, 1 mM EGTA.
as §3, §4, §5, §6, §7, §8, §9

PAK3 = PAK3 (Homo sapiens, UniProt O75914); experiment: In vitro PAK inhibition assay (SelectScreen, Ser/Thr 20 peptide)
PAK3, sequence (O75914 whole entry): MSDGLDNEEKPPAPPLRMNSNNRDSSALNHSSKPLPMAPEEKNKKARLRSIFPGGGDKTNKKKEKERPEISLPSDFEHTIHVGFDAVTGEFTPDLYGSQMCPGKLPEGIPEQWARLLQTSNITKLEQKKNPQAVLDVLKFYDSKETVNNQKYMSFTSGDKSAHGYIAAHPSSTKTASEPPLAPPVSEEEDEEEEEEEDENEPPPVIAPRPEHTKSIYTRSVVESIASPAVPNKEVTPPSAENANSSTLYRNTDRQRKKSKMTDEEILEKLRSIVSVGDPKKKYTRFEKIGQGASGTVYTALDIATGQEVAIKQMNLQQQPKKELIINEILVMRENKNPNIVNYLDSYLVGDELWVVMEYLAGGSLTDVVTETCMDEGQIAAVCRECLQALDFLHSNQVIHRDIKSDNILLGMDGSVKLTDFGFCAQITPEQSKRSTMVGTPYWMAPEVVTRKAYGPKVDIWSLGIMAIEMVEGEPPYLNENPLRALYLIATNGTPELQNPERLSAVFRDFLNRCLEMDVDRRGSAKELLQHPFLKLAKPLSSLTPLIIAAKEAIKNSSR
Protocol: as §1, §2
The 2×PAK3/Ser/Thr 20 mixture is prepared in 50 mM HEPES pH 7.5, 0.01% BRIJ-35, 10 mM MgCl2, 1 mM EGTA.
as §3, §4, §5, §6, §7, §8, §9

PAK2 (PAK65), sequence (Q13177 whole entry): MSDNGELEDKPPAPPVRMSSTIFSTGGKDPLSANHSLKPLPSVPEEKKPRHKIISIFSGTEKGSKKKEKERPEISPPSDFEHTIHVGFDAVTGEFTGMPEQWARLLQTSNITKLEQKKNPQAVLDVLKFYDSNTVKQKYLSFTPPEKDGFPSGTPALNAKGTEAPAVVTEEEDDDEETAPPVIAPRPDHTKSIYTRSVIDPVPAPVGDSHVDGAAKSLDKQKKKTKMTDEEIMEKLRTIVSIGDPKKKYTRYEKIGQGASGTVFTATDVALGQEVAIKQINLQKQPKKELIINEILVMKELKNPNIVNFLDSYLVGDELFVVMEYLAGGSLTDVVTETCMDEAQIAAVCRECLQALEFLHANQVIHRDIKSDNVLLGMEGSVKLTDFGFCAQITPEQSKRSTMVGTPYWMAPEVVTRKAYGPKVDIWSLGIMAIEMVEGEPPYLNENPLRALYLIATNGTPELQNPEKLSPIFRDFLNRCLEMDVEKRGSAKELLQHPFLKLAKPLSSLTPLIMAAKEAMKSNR

IC50 (PAK2 (PAK65))	IC50 (PAK4)	IC50 (PAK1)	IC50 (PAK3)	Compound
< 50 nM	500 to 5000 nM	< 50 nM	< 50 nM	CCn1c(=O)c(-c2ccc(-c3ccccc3F)cc2Cl)cc2cnc(Nc3ccc(C4CCN(C)CC4)cc3)nc21
< 50 nM	≥ 5000 nM	< 50 nM	< 50 nM	CCn1c(=O)c(-c2ccc(-c3cncs3)cc2Cl)cc2cnc(Nc3ccc(N4CCN(C)CC4)c(F)c3)nc21
50 to 500 nM	≥ 5000 nM	50 to 500 nM	50 to 500 nM	CCn1c(=O)c(-c2ccc(-c3ccc(OC)nc3)cc2)cc2cnc(Nc3ccc(N4CCN(C)CC4)cc3)nc21
> 5000 nM	≥ 5000 nM	> 5000 nM	> 5000 nM	CCn1c(=O)c(-c2ccc(-c3cccs3)s2)cc2cnc(Nc3ccc(N4CCN(C)CC4)cc3)nc21
50 to 500 nM	≥ 5000 nM	50 to 500 nM	500 to 5000 nM	CCn1c(=O)c(-c2ccc(-c3cnn(C)c3)cc2)cc2cnc(Nc3ccc(N4CCN(C)CC4)cc3)nc21
50 to 500 nM	≥ 5000 nM	50 to 500 nM	500 to 5000 nM	CC(=O)Nc1ncccc1-c1ccc(Cl)c(-c2cc3cnc(Nc4ccc(C5CCN(C)CC5)cc4)nc3n(C)c2=O)c1
500 to 5000 nM	≥ 5000 nM	50 to 500 nM	50 to 500 nM	CN1CCC(c2ccc(Nc3ncc4cc(-c5cc(-c6cnccn6)ccc5Cl)c(=O)n(C)c4n3)cc2)CC1
> 5000 nM	≥ 5000 nM	> 5000 nM	> 5000 nM	CCn1c(=O)c(-c2ccc(-c3cccnc3C)cn2)cc2cnc(Nc3ccc(C4CCN(C)CC4)cc3)nc21
> 5000 nM	≥ 5000 nM	> 5000 nM	> 5000 nM	CCn1c(=O)c(-c2ccc(-c3ccccn3)s2)cc2cnc(Nc3ccc(N4CCN(C)CC4)cc3)nc21
< 50 nM	500 to 5000 nM	< 50 nM	50 to 500 nM	CCn1c(=O)c(-c2ccc(-c3ccc(C)nc3)cc2Cl)cc2cnc(Nc3ccc(N4CCN(C)CC4)cc3)nc21
< 50 nM	≥ 5000 nM	< 50 nM	< 50 nM	CCn1c(=O)c(-c2ccc(-c3cccnc3C)cc2Cl)cc2cnc(Nc3ccc(C4CCN(C)CC4)cc3)nc21
< 50 nM	≥ 5000 nM	< 50 nM	< 50 nM	CCn1c(=O)c(-c2ccc(-c3noc(C)n3)cc2Cl)cc2cnc(Nc3ccc(N4CCN(C)CC4)c(F)c3)nc21
< 50 nM	500 to 5000 nM	< 50 nM	< 50 nM	CCn1c(=O)c(-c2ccc(-c3cccnc3)cc2Cl)cc2cnc(Nc3ccc(N4CCN(C)CC4)cc3)nc21
< 50 nM	≥ 5000 nM	< 50 nM	< 50 nM	CCn1c(=O)c(-c2ccc(-c3noc(C)n3)cc2Cl)cc2cnc(Nc3ccc(C4CCN5CCCC5C4)cc3)nc21 (centres unmarked)
50 to 500 nM	≥ 5000 nM	50 to 500 nM	500 to 5000 nM	CNC(=O)c1cc(-c2ccc(-c3cc4cnc(Nc5ccc(C6CCN(C)CC6)cc5)nc4n(C)c3=O)c(Cl)c2)ccn1
< 50 nM	500 to 5000 nM	< 50 nM	< 50 nM	CCN1CCC(c2ccc(Nc3ncc4cc(-c5ccc(-c6cnc(C)s6)cc5Cl)c(=O)n(CC)c4n3)cc2F)CC1
500 to 5000 nM	≥ 5000 nM	500 to 5000 nM	> 5000 nM	CN1CCC(c2ccc(Nc3ncc4cc(-c5cc(-c6cccnc6N(C)C)ccc5Cl)c(=O)n(C)c4n3)cc2)CC1
< 50 nM	≥ 5000 nM	< 50 nM	50 to 500 nM	CCn1c(=O)c(-c2ccc(-c3cccs3)cc2Cl)cc2cnc(Nc3ccc(N4CCN(C)CC4)cc3)nc21
< 50 nM	500 to 5000 nM	< 50 nM	< 50 nM	CCn1c(=O)c(-c2ccc(-c3ncncc3F)cc2Cl)cc2cnc(Nc3ccc(C4CCN(C)CC4)cc3)nc21
< 50 nM	500 to 5000 nM	< 50 nM	< 50 nM	CCn1c(=O)c(-c2ccc(-c3cncnc3)cc2Cl)cc2cnc(Nc3ccc(N4CCN(C(C)C)CC4)cc3)nc21
